Here are results for 2 molecules from USRE37950E1, “Biogradable in-situ forming implants and methods of producing the same” (priority 1990, dated 2002).

A short description of data set [1]: Release of drug from polymer/NMP formulation injected into dialysis tube, placed in pH 7 Sorenson's buffer receiving fluid at 37° C., UV at 237 nm. The data set is classed as physicochemical. As to conditions: for cumulative fraction of drug released: Example 1: 2% by weight SaCl dispersion in DL-PLA oligomer/NMP 68:32.
A short description of data set [2]: Concentration of SaCl in crevicular fluid from periodontal pocket of a greyhound dog (Periostrips, Periotron, liquid chromatograph). The conditions noted are these: other: inserted into the periodontal pocket.

As for `C[n+]1cc2c3c(ccc2c2ccc4cc5c(cc4c21)OCO5)OCO3` [SaCl, Sanguinarine chloride], the “cumulative fraction of drug released” value is listed as approximately 72% in data set [1] (after 2 days); approximately 85% in data set [1] (after 5 days); approximately 90% in data set [1] (after 9 days); approximately 97% in data set [1] (after 14 days); “Approximately 60%” in data set [1] (first day). Further, the drug released is approximately 40% in data set [1] (Example 3: 1.5% by weight SaCl dispersion in 40% by weight poly(DL-lactide) (MW 2,000) in NMP, after 2 days); approximately 45% in data set [1] (Example 3: 1.5% by weight SaCl dispersion in 40% by weight poly(DL-lactide) (MW 2,000) in NMP, after 5 days); approximately 50% in data set [1] (Example 3: 1.5% by weight SaCl dispersion in 40% by weight poly(DL-lactide) (MW 2,000) in NMP, after 15 days); “approximately 32%” in data set [1] (Example 3: 1.5% by weight SaCl dispersion in 40% by weight poly(DL-lactide) (MW 2,000) in NMP, after the first day); “approximately 7%” in data set [1] (Example 6: 2% by weight SaCl dispersion in 70% by weight 50:50 DL-PLG (MW 1500) in NMP, after 2 days); approximately 10% in data set [1] (Example 6: 2% by weight SaCl dispersion in 70% by weight 50:50 DL-PLG (MW 1500) in NMP, after 5 days). Moreover, the drug released in data set [1] (Example 6: 2% by weight SaCl dispersion in 70% by weight 50:50 DL-PLG (MW 1500) in NMP, after 7 days) is approximately 12%; in data set [1] (Example 6: 2% by weight SaCl dispersion in 70% by weight 50:50 DL-PLG (MW 1500) in NMP, after 14 days) it was approximately 16%. In data set [2], this molecule registered a concentration at 3 days of 63.2 µg/mL. Also, in data set [2], the concentration at 7 days came to 80.2 µg/mL. Further, in data set [2], the concentration at 10 days came out at 67.8 µg/mL. The concentration at 14 days in data set [2] was determined as 70.5 µg/mL.
`CCOC1c2c(ccc3c2OCO3)-c2ccc3cc4c(cc3c2N1C)OCO4` (stereo not shown) [SaEt, Ethoxydihydrosanguinarine]: the drug released in data set [1] (Example 2: SaEt dissolved in DL-PLA oligomer/NMP solution of Example 1, after 2 days) is reported as approximately 52%; in data set [1] (Example 2: SaEt dissolved in DL-PLA oligomer/NMP solution of Example 1, after 5 days) it was approximately 60%; in data set [1] (Example 2: SaEt dissolved in DL-PLA oligomer/NMP solution of Example 1, after 9 days) it was approximately 70%; in data set [1] (Example 2: SaEt dissolved in DL-PLA oligomer/NMP solution of Example 1, after 14 days) it was approximately 80%; in data set [1] (Example 2: SaEt dissolved in DL-PLA oligomer/NMP solution of Example 1, after the first day), “approximately 45%”; in data set [1] (Example 4: 1.5% by weight SaEt solution in 40% by weight DL-PLA (MW 2,000) in NMP, after 2 days), approximately 14%. The drug released in data set [1] (Example 4: 1.5% by weight SaEt solution in 40% by weight DL-PLA (MW 2,000) in NMP, after 5 days) was approximately 20%; in data set [1] (Example 4: 1.5% by weight SaEt solution in 40% by weight DL-PLA (MW 2,000) in NMP, after 9 days), approximately 23%; in data set [1] (Example 4: 1.5% by weight SaEt solution in 40% by weight DL-PLA (MW 2,000) in NMP, after 14 days) it was approximately 28%; in data set [1] (Example 4: 1.5% by weight SaEt solution in 40% by weight DL-PLA (MW 2,000) in NMP, after the first day), “approximately 8%”. For the same molecule, in data set [1] (Example 7: 2% by weight SaEt solution in 70% by weight 50:50 DL-PLG in NMP), the release rate entry is “identical to that for SaCl described in Example 6”.
